Among the data in patent publication US10253039B2, “Inhibitors of bacterial DNA gyrase with efficacy against gram-negative bacteria” (priority 2014, dated 2019) are MIC values, retold here.

Values after ≈ are worked out from the molar mass of the structure shown. Read-outs that look alike come from different tables or passages of the source.

Holding throughout (format): cell-based
For experiment [1], the system named is Edwardsiella tarda. Put plainly: MIC, microdilution in 96-well plates. An outline of the steps: (§1)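 Growth inhibition was scored after overnight culture (16-18 hours, 37° C., shaking) by looking for turbidity; the first clear well in a triplicate 2-fold compound series defined the MIC. Strains were inoculated at 1:10000 into LB.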
(In general: Broth dilution looks for growth in wells or tubes with falling amounts of substance.)

In experiment [2] the test system is E. coli BW25113. The experiment in a line: MIC, microdilution in 96-well plates. Particulars: Escherichia coli, read-out: MIC. Put shortly: as §1
Experiment [3] deals with Salmonella enterica subsp. enterica typhimurium. The experiment in a line: MIC, 20-strain panel. An outline of the steps: as §1
The subject of experiment [4] is Streptococcus agalactiae. Put plainly: MIC, 20-strain panel. Put shortly: as §1
Experiment [5] has as its system Shigella flexneri. Put plainly: MIC, 20-strain panel. Put shortly:
as §1

Experiment [6] relates to Klebsiella pneumoniae subsp. pneumoniae. Put plainly: MIC, 20-strain panel. An outline of the steps:
as §1

The subject of experiment [7] is E. coli MG1655. Put plainly: MIC, 20-strain panel. The following applies: Escherichia coli, read-out: MIC. An outline of the steps:
as §1

Experiment [8] deals with Staphylococcus aureus subsp. aureus. The experiment in a line: MIC, 20-strain panel. Particulars: read-out: MIC. An outline of the steps:
as §1

For experiment [9], the system named is Streptococcus pyogenes. Put plainly: MIC, 20-strain panel. An outline of the steps:
as §1

Experiment [10] relates to E. coli JW5503 (deltolC). The experiment in a line: MIC, 20-strain panel. Particulars: Escherichia coli. An outline of the steps: as §1
For experiment [11], the system named is Staphylococcus saprophyticus subsp. saprophyticus. The experiment in a line: MIC, 20-strain panel. An outline of the steps: as §1
Experiment [12] concerns Staphylococcus epidermidis. Put plainly: MIC, 20-strain panel. An outline of the steps:
as §1

[13] abbreviates: Salmonella enterica subsp. enterica Typhimurium.
Setting [14] is: Klebsiella pneumoniae subsp. pneumoniae.
The mark [15] stands for this setting: Staphylococcus aureus subsp. aureus.
Where [16] appears, read: F: Salmonella enterica subsp. enterica Typhimurium.
[17] abbreviates: E: Klebsiella pneumoniae subsp. pneumoniae.
[18] abbreviates: H: Staphylococcus aureus subsp. aureus.

In the case of `CC(C)Oc1ccc(CN2CC[C@@H](NS(=O)(=O)c3cc(C(F)(F)F)ccc3Cl)C2)cc1` [Compound 140], the MIC (commonly the smallest concentration in the dilution series that meets the test's criterion for growth inhibition) is above 8 µg/mL in [1]; above 8 µg/mL in experiment [2] (BW25113, E. coli BW25113); 4 µg/mL (≈ 8.39 µM) in experiment [3] (setting [13]); above 8 µg/mL in experiment [4]; above 8 µg/mL in experiment [5]; above 8 µg/mL in experiment [6] (setting [14]). Besides, the minimum inhibitory concentration (MIC) in experiment [7] (MG1655, E. coli MG1655) was above 8 µg/mL; in [8] (setting [15]) it was above 8 µg/mL; in experiment [9], above 8 µg/mL; in experiment [10] (E. coli JW5503 (deltolC)), below 0.0625 µg/mL; in [11] it was above 8 µg/mL; in experiment [12], above 8 µg/mL.

For `O=S(=O)(N[C@@H]1CCN(Cc2ccc(-c3ccccn3)cc2)C1)c1cccc(C(F)(F)F)c1` [Compound 43], the MIC in [1] (D: Edwardsiella tarda) is above 8 µg/mL; in experiment [2] (BW25113, B: E. coli BW25113) it was above 8 µg/mL; in experiment [3] (setting [16]) it was above 8 µg/mL; in experiment [4], above 8 µg/mL; in [5] (G: Shigella flexneri), above 8 µg/mL; in experiment [6] (setting [17]), above 8 µg/mL. Further, the minimum inhibitory concentration (MIC) in experiment [7] (MG1655, A: E. coli MG1655) is above 8 µg/mL; in experiment [8] (setting [18]), above 8 µg/mL; in experiment [9], above 8 µg/mL; in experiment [10] (C: E. coli JW5503 (deltolC)), 0.5 µg/mL (≈ 1.08 µM); in [11], above 8 µg/mL; in experiment [12], above 8 µg/mL.

Turning to `CC(C)Oc1ccc(CN2CC[C@@H](NS(=O)(=O)c3ccc(F)c(C#N)c3)C2)cc1` [Compound 165], the MIC in experiment [1] was above 8 µg/mL; in experiment [2] (BW25113, E. coli BW25113) it was above 8 µg/mL; in [3] (setting [13]), above 8 µg/mL; in experiment [4], above 8 µg/mL; in [5], above 8 µg/mL; in [6] (setting [14]) it was above 8 µg/mL. The MIC in experiment [7] (MG1655, E. coli MG1655) was above 8 µg/mL; in experiment [8] (setting [15]), above 8 µg/mL; in experiment [9] it was above 8 µg/mL; in [10] (E. coli JW5503 (deltolC)) it was 4 µg/mL (≈ 9.58 µM); in experiment [11], above 8 µg/mL; in experiment [12] it was above 8 µg/mL.

Consider `O=S(=O)(N[C@@H]1CCN(Cc2ccc(-c3cncnc3)cc2)C1)c1cccc(C(F)(F)F)c1` [Compound 58], for which the MIC in experiment [1] (D: Edwardsiella tarda) was above 8 µg/mL; in [2] (BW25113, B: E. coli BW25113), above 8 µg/mL; in experiment [3] (setting [16]), above 8 µg/mL; in [4], above 8 µg/mL; in experiment [5] (G: Shigella flexneri), above 8 µg/mL; in [6] (setting [17]), above 8 µg/mL. Moreover, the MIC is above 8 µg/mL in experiment [7] (MG1655, A: E. coli MG1655); above 8 µg/mL in experiment [8] (setting [18]); above 8 µg/mL in experiment [9]; 8 µg/mL (≈ 17.3 µM) in experiment [10] (C: E. coli JW5503 (deltolC)); above 8 µg/mL in [11]; above 8 µg/mL in experiment [12].

As for `N#Cc1cccc(S(=O)(=O)N[C@@H]2CCN(Cc3ccc(OC(F)F)cc3)C2)c1` [Compound 2], the MIC was above 8 µg/mL in experiment [1] (D: Edwardsiella tarda); above 8 µg/mL in [2] (BW25113, B: E. coli BW25113); above 8 µg/mL in [3] (setting [16]); above 8 µg/mL in [4]; above 8 µg/mL in experiment [5] (G: Shigella flexneri); above 8 µg/mL in experiment [6] (setting [17]). Also, the MIC in experiment [7] (MG1655, A: E. coli MG1655) is above 8 µg/mL; in [8] (setting [18]), above 8 µg/mL; in experiment [9], above 8 µg/mL; in experiment [10] (C: E. coli JW5503 (deltolC)) it was 8 µg/mL (≈ 19.6 µM); in experiment [11], above 8 µg/mL; in experiment [12], above 8 µg/mL.

`O=S(=O)(N[C@@H]1CCN(Cc2ccc(-c3cccc(Cl)c3)cc2)C1)c1cccc(OC(F)(F)F)c1` [Compound 28]: the MIC in experiment [1] (D: Edwardsiella tarda) was above 8 µg/mL; in experiment [2] (BW25113, B: E. coli BW25113), above 8 µg/mL; in experiment [3] (setting [16]) it was above 8 µg/mL; in experiment [4], above 8 µg/mL; in [5] (G: Shigella flexneri), above 8 µg/mL; in [6] (setting [17]), above 8 µg/mL. The MIC in experiment [7] (MG1655, A: E. coli MG1655) is above 8 µg/mL; in experiment [8] (setting [18]) it was above 8 µg/mL; in experiment [9], around 8 µg/mL (≈ 15.7 µM); in experiment [10] (C: E. coli JW5503 (deltolC)) it was above 8 µg/mL; in [11], above 8 µg/mL; in experiment [12] it was 2 µg/mL (≈ 3.91 µM).

For the compound `CC(C)Oc1ccc(CN2CC[C@@H](NS(=O)(=O)c3cc(S(C)(=O)=O)ccc3Cl)C2)cc1` [Compound 148], the MIC was above 8 µg/mL in experiment [1]; above 8 µg/mL in [2] (BW25113, E. coli BW25113); above 8 µg/mL in [3] (setting [13]); above 8 µg/mL in experiment [4]; above 8 µg/mL in experiment [5]; above 8 µg/mL in [6] (setting [14]). The MIC in experiment [7] (MG1655, E. coli MG1655) was above 8 µg/mL; in experiment [8] (setting [15]) it was above 8 µg/mL; in experiment [9] it was above 8 µg/mL; in experiment [10] (E. coli JW5503 (deltolC)) it was 8 µg/mL (≈ 16.4 µM); in [11] it was above 8 µg/mL; in experiment [12] it was above 8 µg/mL.
